# Values of other authors, collected in patent US20070098786A1, “ENTERIC VALPROIC ACID” (Banner Pharmacaps, Inc., priority 2005, published 2007).
smiles,measurement,value
CCCC(CCC)C(=O)O [Divalproex sodium],solubility in water,soluble in water
